This test relates to Mutant TERT. Description: HepG2 hTERT mRNA assay (qPCR). The following applies: HepG2 cells (mutated TERT), 48 hours, TERT mRNA via qPCR. The format is cell-based, human. The protocol: HepG2 cells (hepatocyte carcinoma (HCC) cells; with mutated TERT) or HEK293T cells (with wild type (wt) TERT) were seeded at 4,000 cells/well in 96-well plates. The following day, test compounds were added to cells for at concentrations of 25 uM, 12.5 uM, 6.25 uM, 3.125 uM, 1.563 uM, 0.781 uM, 0.391 uM, 0.195 uM, 0.098 uM or vehicle control (0.1% DMSO). Each condition was tested in three replicate wells. 48 hours post drug addition, the cells were harvested for RNA using the 96-Magmax RNA Isolation kit (Cat. No. AM1830). RNA was converted to cDNA using the Superscript III First strand cDNA synthesis kit (Cat. No. 18080051). RNA and cDNA concentration and quality were determined using the NanoQuant nucleic acid quantification method. 500 ng cDNA from each sample was used to detect TERT mRNA via qPCR. GUSB was also measured as an internal control and fold change to vehicle control was determined using the delta CT method.

Each structure is given as a SMILES string.

For `N#Cc1cc(CN2C[C@H](CC(=O)O)C[C@@H](c3ccc(C(F)(F)F)cc3)C2)ccc1Cl` (racemic) [Compound 140, Anti-2-(1-(4-chloro-3-cyanobenzyl)-5-(4-(trifluoromethyl)phenyl)piperidin-3-yl)acetic acid], the IC50 (Homo sapiens) lay in the range of 500 to 5000 nM.

`O=C(O)C[C@@H]1C[C@@H](c2ccc(Cl)cc2)CN(Cc2ccc(Cl)cc2)C1` [Compound 139, 2-((3S,5S)-1-(4-chlorobenzyl)-5-(4-chlorophenyl)piperidin-3-yl)acetic acid]: the IC50 (Homo sapiens) fell in the range of 500 to 5000 nM.

Turning to `O=C(O)C[C@H]1C[C@H](c2ccc(C(F)(F)F)cc2)CN(Cc2ccc3ccccc3c2)C1` (racemic) [Compound 141, Anti-2-(1-(naphthalen-2-ylmethyl)-5-(4-(trifluoromethyl)phenyl)piperidin-3-yl)acetic acid], under “Homo sapiens”, the IC50 lay in the range of 500 to 5000 nM.

Under “Homo sapiens”, `O=C(O)C[C@H]1C[C@H](c2ccc(F)cc2)CN(Cc2ccc(C(F)(F)F)cc2)C1` (racemic) [Compound 122, Anti-2-(5-(4-fluorophenyl)-1-(4-(trifluoromethyl)benzyl)piperidin-3-yl)acetic acid] had a half-inhibitory concentration (IC50) of 500 to 5000 nM.

With `C#Cc1ccc([C@@H]2C[C@@H](CC(=O)O)CN(Cc3ccc(C4(C(F)(F)F)N=N4)cc3)C2)cc1` (single isomer, unassigned) [Compound 146], the IC50 (Homo sapiens) was in the range of 500 to 5000 nM.

`O=C(O)C[C@H]1C[C@H](c2ccc(C(F)(F)F)cc2)CN(Cc2ccccc2)C1` (racemic) [Compound 138, Anti-2-(1-benzyl-5-(4-(trifluoromethyl)phenyl)piperidin-3-yl)acetic acid] came in with an IC50 (Homo sapiens) of 500 to 5000 nM.

For the compound `N#Cc1cccc(CN2C[C@@H](CC(=O)O)C[C@H](c3ccc(C(F)(F)F)cc3)C2)c1` (racemic) [Compound 124, Anti-2-(-1-(3-cyanobenzyl)-5-(4-(trifluoromethyl)phenyl)piperidin-3-yl)acetic acid], the IC50 (Homo sapiens) is less than 500 nM.

The compound `O=C(O)C[C@H]1C[C@H](c2ccc(Cl)cc2)CN(Cc2ccc(C(F)(F)F)cc2)C1` (racemic) [Compound 123, Anti-2-(-5-(4-chlorophenyl)-1-(4-(trifluoromethyl)benzyl)piperidin-3-yl)acetic acid] gave an IC50 (Homo sapiens) of less than 500 nM.

The compound `C#Cc1ccc(CN2C[C@H](CC(=O)O)C[C@@H](c3ccc(N=[N+]=[N-])cc3)C2)cc1` (single isomer, unassigned) [Compound 144] showed an IC50 (Homo sapiens) of 500 to 5000 nM.

As for `O=C(O)C[C@@H]1C[C@@H](c2ccc(C(F)(F)F)cc2)CN(Cc2ccccc2F)C1` [Compound 119, 2-((3S,5S)-1-(2-fluorobenzyl)-5-(4-(trifluoromethyl)phenyl)piperidin-3-yl)acetic acid], the concentration for half-maximal inhibition (IC50) (Homo sapiens) is 500 to 5000 nM.

In the case of `O=C(O)CC1CC(c2ccc(C(F)(F)F)cc2)CN(Cc2ccc(C(F)(F)F)cc2)C1` (stereo not drawn) [Compound 132], the half-inhibitory concentration (IC50) lay within 500 to 5000 nM.

For the compound `CCC(C(=O)O)[C@@H]1C[C@@H](c2ccc(C(F)(F)F)cc2)CN(Cc2ccc(C(F)(F)F)cc2)C1` (mixture of isomers) [Compound 125, Anti-2-(1-(4-(trifluoromethyl)benzyl)-5-(4-(trifluoromethyl)phenyl)piperidin-3-yl)butanoic acid], the IC50 (Homo sapiens) lay within 500 to 5000 nM.

Turning to `O=C(O)C[C@@H]1C[C@@H](c2ccc(C(F)(F)F)cc2)CN(Cc2ccc(F)c(F)c2)C1` [Compound 118, 2-((3S,5S)-1-(3,4-difluorobenzyl)-5-(4-(trifluoromethyl)phenyl)piperidin-3-yl)acetic acid], the IC50 (Homo sapiens) is less than 500 nM.

Turning to `O=C(O)C[C@@H]1C[C@@H](c2ccc(C(F)(F)F)cc2)CN(Cc2ccc(F)cc2)C1` [Compound 117, 2-((3S,5S)-1-(4-fluorobenzyl)-5-(4-(trifluoromethyl)phenyl)piperidin-3-yl)acetic acid], the IC50 (Homo sapiens) lay in the range of 500 to 5000 nM.

Where the note is “Homo sapiens”, `O=C(O)C[C@H]1C[C@H](c2ccc(C(F)(F)F)c(F)c2)CN(Cc2ccc(C(F)(F)F)cc2)C1` (racemic) [Compound 129, Anti-2-(5-(3-fluoro-4-(trifluoromethyl)phenyl)-1-(4-(trifluoromethyl)benzyl)piperidin-3-yl)acetic acid] had an IC50 of 500 to 5000 nM.

The values are drawn from patent US20230416202A1, “Small Molecule Compounds and Compositions” (Telo Therapeutics, Inc., priority 2020, published 2023).
